Test results: patent US5234944A (priority 1986, dated 1993)
Like-named read-outs stand apart in the source and are kept apart here.

How the values were obtained:
[1] = Hypotensive activity on the anaesthetized rat; type: in vivo, rat (Sprague Dawley); conditions: injected into jugular vein
[2] = molecular target: T1, opiated receptor K (Cavia porcellus, UniProt P41144); experiment: Liaison with the opiated receptor K in vitro (displacement of 3H ethylketocyclazocine); type: binding; conditions: guinea-pig cerebella membranes, 3H ethylketocyclazocine 1 nM, Tris pH 7.7, 25° C., 40 minutes
T1 construct: Membrane residue prepared from the cerebella of guinea-pigs; from tissue; host or cells: guinea-pig cerebellum membranes

[3] = Measurement of the diuretic activity; type: in vivo, rat (Sprague Dawley); conditions: oral, t1h-t5h
Experimental: 4) Measurement of the diuretic activity
Male rats of Sprague Dawley strain weighing 180 to 200 g were not fed for 17 hours before the test, but received water ad libitum. Groups of 8 animals were set up for each dose tested and the rats received the product under test or its vehicle orally. The urinary volume was measured every hour for the 5 hours following the administration of the product. At the end of this period, the urines were collected and the activity of the product was expressed as a percentage of variation calculated on the urinary volume corresponding to the period t1h -t5h.

[4] = type: in vivo, rat; conditions: intravenous, aconitine 5 minutes after
[5] = 50% inhibiting concentration (IC50)
[6] = read-out: 50% inhibiting concentration (IC50)

T1 sequence (P41144 whole entry): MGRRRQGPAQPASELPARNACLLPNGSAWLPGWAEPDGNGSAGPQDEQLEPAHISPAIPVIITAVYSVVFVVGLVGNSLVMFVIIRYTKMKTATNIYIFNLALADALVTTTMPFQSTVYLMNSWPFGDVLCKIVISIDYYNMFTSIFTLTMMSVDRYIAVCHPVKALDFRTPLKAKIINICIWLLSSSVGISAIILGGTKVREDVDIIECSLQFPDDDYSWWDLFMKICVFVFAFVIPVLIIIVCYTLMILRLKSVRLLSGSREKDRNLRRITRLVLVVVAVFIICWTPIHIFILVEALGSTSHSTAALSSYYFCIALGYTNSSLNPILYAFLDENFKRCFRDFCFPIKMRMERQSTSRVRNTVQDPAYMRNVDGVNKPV

Row | Structure (SMILES) | IC50 [2, 5] [nM] | variation of arterial pressure, 5 min. after administration ([1]; dose 1 mg/kg) [%] | variation of arterial pressure, 30 min. after administration ([1]; dose 1 mg/kg) [%] | other results
1 | CN(C(=O)Cc1ccc(Cl)c(Cl)c1)[C@H]1[C@H](N2CCCC2)c2ccccc2C12CCOCC2 (relative stereo) [Example 4, [trans (±)]3,4-dichloro-N-[2,2',3,3',5',6'-hexahydro-3-(1-pyrrolidinyl)-spiro (1H-inden-1-,4'-(4H)-pyran]-2-yl]-N-methyl-benzene-acetamide] | – | – | – | variation of arterial pressure, 5 min. after administration ([1]; dose 10 mg/kg): -26%; variation of arterial pressure, 30 min. after administration ([1]; dose 10 mg/kg): -14%
2 | CN(C(=O)Cc1ccc(Cl)c(Cl)c1)[C@H]1[C@H](N2CCCC2)c2ccccc2C1(C)C (relative stereo) [Example 29, [Trans (±)]3,4-dichloro-N-[2,3-dihydro-1,1-dimethyl-3-(1-pyrrolidinyl)-1H-inden-2-yl]-N-methyl-benzene-acetamide] | 5.6 | – | – | –
3 | CN(C(=O)Cc1ccc([N+](=O)[O-])cc1)[C@@H]1c2ccccc2C[C@H]1N1CCCC1 (relative stereo) [Example 8, [Trans (±)]N-[2,3-dihydro-2-(1-pyrrolidinyl)-1H-inden-1-yl]-N-methyl-4-nitro-benzene-acetamide] | 7.1 | -25 | -27 | percentage of variation of the urinary volume ([3]; dose 2.5 mg/kg): +124%; percentage of variation of the urinary volume ([3]; dose 5 mg/kg): +130%; percentage of extension of time of appearance of disturbances of the cardiac rhythm ([4]; dose 5 mg/kg): +23%
4 | CN(C(=O)COc1ccc(Cl)c(Cl)c1)[C@@H]1c2ccccc2C[C@H]1N1CCCC1 (relative stereo) [Example 14, [trans (±)]2-(3,4-dichlorophenoxy)-N-[2,3-dihydro-2-(1-pyrrolidinyl)-1H-inden-1-yl]-N-methyl-acetamide] | – | -22 | -26 | IC50 [2, 6]: 3.8 nM; percentage of variation of the urinary volume ([3]; dose 5 mg/kg): +68%
5 | CN(C(=O)Cc1ccc([N+](=O)[O-])cc1)[C@@H]1c2ccccc2C[C@H]1N1CCCC1 (relative stereo) [Example 16, [Trans (±)]N-[2,3-dihydro-2-(1-pyrrolidinyl)-1H-inden-1-yl]-N-methyl-4-nitro-benzene-acetamide (isomer A)] | 5 | – | – | –
6 | CN(C(=O)Cc1cccc(C(F)(F)F)c1)[C@@H]1c2ccccc2C[C@H]1N1CCCC1 (relative stereo) [Example 6, [Trans (±)]N-[2,3-dihydro-2-(1-pyrrolidinyl)-1H-inden-1-yl]-N-methyl-3-(trifluoromethyl)-benzene-acetamide] | 7.5 | – | – | –
7 | CC(C(=O)N(C)[C@@H]1c2ccccc2C[C@H]1N1CCCC1)c1ccc(Cl)c(Cl)c1 (mixture of isomers) [Example 22, [Trans (±)]3,4-dichloro-N-[2,3-dihydro-2-(1-pyrrolidinyl)-1H-inden-1-yl]-N-α-dimethyl-benzene-acetamide] | – | – | – | IC50 [2, 6]: 7.1 nM
8 | CN(C(=O)Cc1ccc(C(F)(F)F)cc1)[C@@H]1c2ccccc2C[C@H]1N1CCCC1 (relative stereo) [Example 5, [Trans (±)]N-[2,3-dihydro-2-(1-pyrrolidinyl)-1H-inden-1-yl]-N-methyl 4-(trifluoromethyl)-benzene-acetamide] | 3 | -20 | -20 | variation of arterial pressure, 5 min. after administration ([1]; dose 10 mg/kg): -25%; variation of arterial pressure, 30 min. after administration ([1]; dose 10 mg/kg): -10%; percentage of extension of time of appearance of disturbances of the cardiac rhythm ([4]; dose 10 mg/kg): +15.6%
9 | CN(C)[C@@H]1Cc2ccccc2[C@H]1N(C)C(=O)Cc1ccc(Cl)c(Cl)c1 (relative stereo) [Example 25, [Trans (±)]3,4-dichloro-N-[2,3-dihydro-2-(dimethylamino)-1H-inden-1-yl]-N-methyl-benzene-acetamide] | 2.2 | – | – | –
